Data from ChEMBL document CHEMBL1147496, “Synthesis and anti-inflammatory activity of some [4,6-(4-substituted aryl)-2-thioxo-1,2,3,4-tetrahydro-pyrimidin-5-yl]-acetic acid derivatives” (2004).

Tested on: Rattus norvegicus
Assay: Anti-inflammatory activity was determined by carangeenan-induced rat paw edema test in albino rats
Assay type: functional
Design: concentration or dose not given beside the values

| SMILES | Inhibition [%] |
| --- | --- |
| O=C(O)CC1=C(c2ccc(Cl)cc2)N=C(S)NC1c1cccs1 (stereo not drawn) | 16 |
| Cc1ccc(C2=C(CC(=O)O)C(c3ccccc3)NC(S)=N2)cc1 (stereo not drawn) | 28 |
| O=C(O)CC1=C(c2ccc(Cl)cc2)N=C(S)NC1c1ccc(Cl)cc1 (stereo not drawn) | 25 |
| O=C(O)CC1=C(c2ccc(Cl)cc2)N=C(S)NC1c1ccco1 (stereo not drawn) | 9 |
| O=C(O)CC1=C(c2ccccc2)N=C(S)NC1c1ccccc1 (stereo not drawn) | 17 |
| O=C(O)CC1=C(c2ccccc2)N=C(S)NC1c1cccnc1 (stereo not drawn) | 15 |
| O=C(O)CC1=C(c2ccccc2)N=C(S)NC1c1cccs1 (stereo not drawn) | 21 |
| Cc1ccc(C2=C(CC(=O)O)C(c3ccc(Cl)cc3)NC(S)=N2)cc1 (stereo not drawn) | 22 |
| COc1ccc(C2NC(S)=NC(c3ccc(Cl)cc3)=C2CC(=O)O)cc1 (stereo not drawn) | 35 |
| COc1ccc(C2NC(S)=NC(c3ccc(C)cc3)=C2CC(=O)O)cc1 (stereo not drawn) | 33 |
| Cc1ccc(C2=C(CC(=O)O)C(c3cccs3)NC(S)=N2)cc1 (stereo not drawn) | 10 |
| O=C(O)CC1=C(c2ccc(Cl)cc2)N=C(S)NC1c1cccnc1 (stereo not drawn) | 11 |
| O=C(O)CC1=C(c2ccccc2)N=C(S)NC1c1ccc(Cl)cc1 (stereo not drawn) | 30 |
| O=C(O)CC1=C(c2ccccc2)N=C(S)NC1c1ccco1 (stereo not drawn) | 19 |
| COc1ccc(C2NC(S)=NC(c3ccccc3)=C2CC(=O)O)cc1 (stereo not drawn) | 32 |
| Cc1ccc(C2=C(CC(=O)O)C(c3ccco3)NC(S)=N2)cc1 (stereo not drawn) | 11 |
| Cc1ccc(C2=C(CC(=O)O)C(c3cccnc3)NC(S)=N2)cc1 (stereo not drawn) | 7 |
| O=C(O)CC1=C(c2ccc(Cl)cc2)N=C(S)NC1c1ccccc1 (stereo not drawn) | 20 |
